The values that follow come from patent publication US4861795A, “Treatment of conditions requiring enhanced oxygen availability to mammalian tissues” (Rorer Pharmaceutical Corporation, priority 1988, dated 1989).

What is called inhibition is the relative decrease from the control value, in per cent. A higher inhibition goes with a strong effect.

Molecules are shown by their SMILES. Where a name gives a salt, the structure may show the parent alone.

One experiment concerns the target T1, 2,3-DPG phosphatase (Homo sapiens, UniProt P07738).
T1 sequence (P07738 1-259): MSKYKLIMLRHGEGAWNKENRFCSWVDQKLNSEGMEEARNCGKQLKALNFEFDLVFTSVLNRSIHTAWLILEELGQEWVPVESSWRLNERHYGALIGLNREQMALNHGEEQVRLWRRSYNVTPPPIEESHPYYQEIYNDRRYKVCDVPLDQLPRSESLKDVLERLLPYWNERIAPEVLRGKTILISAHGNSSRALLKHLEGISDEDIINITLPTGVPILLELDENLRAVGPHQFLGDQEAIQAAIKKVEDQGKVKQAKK
Kind of experiment: 2,3-Diphosphoglycerate Phosphatase Assay (radiochemical, release of inorganic 32P-phosphate from 2,3-DPG). The class given is biochemical. Conditions: 100 μM compound; pH 7.5, 110 μM 32P-labeled 2,3-DPG, 5 μM phosphoglycolate, 37° C., 20 minutes. The protocol: 2,3-Diphosphoglycerate Phosphatase Assay The activity of 2,3-DPG phosphatase was determined radiochemically using a method based on Rose et al. (J. Biol. Chem. 245, 3232-3241, 1970). In this method the activity of the phosphatase is measured by determining the release of inorganic phosphate from the substrate, 2,3-DPG. The test compounds were dissolved in dimethyl sulfoxide at 100 times the final concentration used and then added to the reaction mixture at the beginning of the assay period. In the control experiments equivalent concentration of dimethyl sulfoxide was used. […] At the end of incubation the reaction was stopped by the addition of 0.1 ml of 15% w/v trichloroacetic acid and the sample was centrifuged (Eppendorf microfuge, Model 5413) in order to remove protein precipitates. Then 0.2 ml of the supernatant was withdrawn and mixed with 0.1 ml of 8 M sulfuric acid, 0.1 ml of 5% w/v ammonium molybdate and 0.6 ml of water. The mixture then was extracted with 2 ml of isobutanol/benzene (1:1,v/v) and then centrifuged to effect separation of the phases. 1 ml of the organic phase containing the extracted ^32 p-phosphate was counted in a scintillation counter (Beckman, Model LS 8,000) using a program for ^32 p radioactivity. The activity of the enzyme was expressed as number of mole phosphate release per minute. From the data obtained by employing the test method above-described, the percent inhibition of 2,3-DPG phosphatase was calculated and is shown in Table II.

The test system of experiment [1] is oxygen-dissociation curve in whole human blood. Conditions: in vitro, increase of 2,3-DPG; cited from earlier work.

At 2,3-DPG phosphatase, `O=C(O)c1cc2cccc(OCc3ccc(Cl)c(Cl)c3)c2cc1OCc1ccc(Cl)c(Cl)c1` [w, 3,5-bis-(3,4-dichlorobenzyloxy)-2-naphthoic acid] registered an inhibition at 100 µM of 93.6%.
With `O=C(O)c1cc2cccc(OCc3ccc(F)cc3)c2cc1O` [v, 5-(4-fluorobenzyloxy)-3-hydroxy-2-naphthoic acid], the inhibition at 100 µM at 2,3-DPG phosphatase turned out to be 89%.
Still for that read-out and setting: the value for `O=C(O)c1cc2cccc(OCCCc3ccccc3)c2cc1O` [r, 3-hydroxy-5-(3-phenylpropoxy)-2-naphthoic acid] was 97.1%; that for `O=C(O)c1cc2cccc(OCc3ccccc3)c2cc1OC(=O)C(Cl)Cl` [y, 5-benzyloxy-3-dichloroacetoxy-2-naphthoic acid] was 81.9%.
The same measure, in the same setting: the value for `O=C(O)c1cc2cccc(OCc3ccc(Cl)cc3Cl)c2cc1O` [s, 5-(2,4-dichlorobenzyloxy)-3-hydroxy-2-naphthoic acid] was 95.6%; that for `CC(=O)Oc1cccc2cc(C(=O)O)c(O)cc12` [g, 5-acetoxy-3-hydroxy-2-naphthoic acid] was 89.6%; that for `O=C(O)c1cc2cccc(OCCOc3ccccc3)c2cc1O` [d, 5-phenoxyethoxy-3-hydroxy-2-naphthoic acid] was 92.5%.
Same read-out and setting: the value for `COc1cccc2cc(C(=O)O)c(O)cc12` [a, 5-methoxy-3-hydroxy-2-naphthoic acid] was 79.2%; that for `O=C(O)c1cc2cccc(OCCCc3ccc(Cl)c(Cl)c3)c2cc1O` [u, 5-[3-(3,4-dichlorophenyl)-propoxy]-3-hydroxy-2-naphthoic acid] was 86.9%.
In turn, `CCOC(=O)c1cc2cccc(OCCN3CCCC3)c2cc1OCCN1CCCC1` [p, ethyl 3,5-bis[2-(1-pyrrolidinyl)ethoxy]-2-naphthoate monohydrochloride] returned an inhibition at 100 µM at 2,3-DPG phosphatase of 99.2%.
`O=C(O)c1cc2cccc(OCc3ccccc3)c2cc1O` [h, 5-benzyloxy-3-hydroxy-2-naphthoic acid]: at 2,3-DPG phosphatase, the inhibition at 100 µM is 74%.
The same measure, in the same setting: the value for `O=C(O)c1cc2cccc(OCc3c(Cl)cccc3Cl)c2cc1O` [t, 5-(2,6-dichlorobenzyloxy)-3-hydroxy-2-naphthoic acid] was 94.2%; that for `O=C(O)c1cc2cccc(OCCc3ccccc3)c2cc1O` [b, 5-phenetoxy-3-hydroxy-2-naphthoic acid] was 94.3%.
As to `O=C(O)C(COP(=O)(O)O)OP(=O)(O)O` (centres unmarked) [2,3-DPG, 2,3-diphosphoglyceric acid], the “displacement of the oxygen-dissociation curve (in words)” value in experiment [1] was “displaces in vitro the oxygen-dissociation curve to the right of normal”.
Molecule `O=C(O)c1cc2cccc(OCc3cccc(C(F)(F)F)c3)c2cc1O` [c, 5-(3-trifluoromethylbenzyloxy)-3-hydroxy-2-naphthoic acid] gave an inhibition at 100 µM at 2,3-DPG phosphatase of 94.3%.
Molecule `C=CCCCCCCCCCOc1cccc2cc(C(=O)O)c(O)cc12` [x, 3-hydroxy-5(undecenyloxy)-2-naphthoic acid] gave an inhibition at 100 µM against 2,3-DPG phosphatase of 100%.
Still for that read-out and setting: the value for `O=C(O)c1cc2cccc(OCc3ccc(Cl)c(Cl)c3)c2cc1O` [q, 5-(3,4-dichlorobenzyloxy)-3-hydroxy-2-naphthoic acid] was 97.7%.
